The text below walks through data of US9273317B2, “Methods and compositions for inhibiting the growth and/or proliferation of MYC-driven tumor cells” (Fred Hutchinson Cancer Research Center, priority 2011, dated 2016).

Series [1] has as its system IMR-32 cells (MYCN+). Kind of series: IC261 viability by CellTiter-Glo in IMR-32 cells. It is filed as cell-based, human. To be noted: 0-30 uM, 48 hrs. How it is done:
(§1) a. HFF cell lines with or without c-Myc over-expression were treated with 0-10 uM IC261 for 48 hrs. The cells were exposed to CellTiter-Glo reagent and viability was assessed by ATP-induced chemiluminescence. Values indicate mean±SD. b. Tet21N cells with or without doxycyclin treatment and IMR-32 cells (MYCN+) were treated with 0-30 uM IC261 for 48 hrs. The cells were exposed to CellTiter-Glo reagent and the viability was assessed by ATP-induced chemiluminescence. Values indicate mean±SD. c. Cell growth curves for HFF-pBabe incubated with different concentrations of IC261. d. Cell growth curves for HFF-MYC incubated with different concentrations of IC261.
(§2) As there is strong selection to escape lentiviral-mediated silencing of genes that are necessary for cell growth, we proceeded to evaluate a small molecule inhibitor of CSNK1e enzymatic activity, IC261^33. […] A cohort of ten xenograft bearing mice was randomized into two groups with approximate equal tumor burden; one group was treated with daily subcutaneous injection of IC261 for 8 consecutive days, while the control group was treated with DMSO vehicle only. […] Taken together, the results obtained by genetic knock-down as well as via small molecule inhibitor validate CSNK1e as a potential therapeutic target for MYCN-driven neuroblastoma.

In series [2] the test system is MYCN amplified neuroblastoma xenograft (IMR32). Kind of series: IC261 treatment of MYCN amplified neuroblastoma xenograft. It is filed as in vivo, NOD/SCID mice. How it is done:
FIG. 3. IC261 treatment blocks MYCN amplified neuroblastoma tumor growth in vivo. a, Representative images of MYCN amplified neuroblastoma xenograft in NOD/SCID mice before and after treatment with either DMSO or IC261. Tumors were engrafted, and allowed to reach a size of about 100 mm^3, then IC261 (21.5 mg/kg) or DMSO was injected subcutaneously daily for 8 days. b, Quantitation of tumor size over the 8-day treatment regimen with either IC261 or DMSO control. Values represent mean tumor volume at each time point (n=5 for each group, error bars indicate SD). c, Immunohistochemical analysis of tumor sections from IC261 and DMSO treatment groups described in a and b. Representative images of H-E, TUNEL and BrdU staining for each group are shown. BrdU was administered 2 h before collection. d. Quantification of TUNEL positive cells and BrdU positive cells per field in DMSO or IC-261 treated xenograft tumors. Error bars indicate SD of means.
as §2

In series [3] the test system is MYC overexpressing cells. The series can be described thus: IC261 viability by CellTiter-Glo in cells with or without MYC overexpression. The format is cell-based, human. To be noted: 48 hrs, HFF with or without c-Myc, Tet21N with or without doxycyclin, IMR-32. How it is done:
as §1, §2

Series [4] concerns HFF-MYC. The series can be described thus: High throughput siRNA screen, cell viability by Alamar Blue, c-MYC overexpressing cells. The format is cell-based, human. How it is done: (§3) FIG. 1. Identification of synthetic lethal genes with c-MYC overexpression by high throughput siRNA screening. a, Graphical schematic of the siRNA screen. HFF expressing either c-MYC or transduced with an empty retroviral vector, pB, were plated in 384 well plates. 24 hr later they were transfected with siRNA pools (3 siRNAs/pool) targeting a total of ˜3,311 genes, with one gene targeted per well. At day 5, the viability was quantified utilizing an Alamar Blue staining assay and an EnVision plate reader. b, Graphical representation of cell viability as affected by each siRNA pool in both HFF-pB or HFF-c-MYC and quantified as % relative to mock (on a log10 scale). Values represent the average viability of 3 replicates. A set of siRNAs (targeting 102 genes labeled as light shaded+) caused differential loss of viability (Z score>2) in the HFF-MYC versus control pB. An additional set of siRNAs targeting 20 genes caused selective growth advantage to HFF-MYC. c, CSNK1e, PES1 and CECR2 mRNA levels following lentiviral-mediated shRNA knock-down. Relative levels of each gene were calculated using the ΔΔCT method and using GAPDH to normalize mRNA levels within each sample. d, Viability of HFF-pBabe and HFF-Myc following stable, lentiviral based knock-down of MYC-SL genes CSNK1e, PES1 and CECR2. […] Y-axis indicates the % of cells stained with anti-γ-H2AX that scored for nuclear fluorescence levels above a negative control established threshold. Quantitation was obtained by automated microscopy in 96 well format, from triplicate samples. g, Quantitative assessment of Caspase-3 and -7 cleavage following transfection of the same siRNA pools as above (measured by the CaspaseGlo kit, Promega). […]
We employed a high throughput robotics-based approach for massive parallel testing of an arrayed siRNA library to accurately quantify the effects of siRNAs against ˜3,300 druggable genes and 200 microRNAs on the viability of HFF-MYC (stably transduced with a retroviral vector expressing c-MYC), or a control empty vector, HFF-pB^14, see FIG. 1a for schematic of the experimental set-up). […]

Series [5] deals with HFF-pB. The series can be described thus: High throughput siRNA screen, cell viability by Alamar Blue, control cells. The format is cell-based, human. To be noted: siRNA pool (3 siRNAs/pool), day 5, average of 3 replicates, relative to median of wells transfected with siRNA to luciferase. How it is done: as §3, with “A set of siRNAs (targeting 102 genes labeled as light shaded+) caused differential loss of viability (Z score>2) in the HFF-MYC versus control pB. An additional set of siRNAs targeting 20 genes caused selective growth advantage to HFF-MYC. c, CSNK1e, PES1 and CECR2 mRNA levels following lentiviral-mediated shRNA knock-down.” left out
(The colour change of resazurin is a common sign of viable cells or microbes.)

With `COc1cc(OC)c(C=C2C(O)=Nc3ccccc32)c(OC)c1` [IC261], the “sensitivity to IC261 in vitro” value in series [1] was “highly sensitive”. In addition, the tumor growth entry in series [2] (21.5 mg/kg subcutaneously daily for 8 days) is “effective in halting tumor growth in all treated mice”. The “apoptosis by TUNEL staining of tumor tissue” value in series [2] (after IC261 treatment) is listed as “very little apoptosis was detected”. Besides, the “BrdU labeling of tumor tissue” value in series [2] (after IC261 treatment, BrdU 2 h before collection) was “marked decrease in BrdU labeling”. The “differences in IC50, MYC overexpressing versus normal or low MYC expressing cells” value in series [3] was above 100 fold.
For the compound CTPS, in series [4] (differential loss of viability HFF-MYC versus HFF-pB), the “Z score (>than)” value is on record as above 2.5. The “Ratio pBabe/Myc” value in series [4] (ratio of percent viability of a given siRNA pool in HFF-pB/HFF-MYC) turned out to be 3.63. Also, in series [4] (siRNA pool (3 siRNAs/pool), day 5, average of 3 replicates, relative to median of wells transfected with siRNA to luciferase), the “% Viability HFF-MYC” value turned out to be 19.44%. The “% Viability HFF-pB” value in series [5] is reported as 70.57%.
